Results taken from patent US20060058336A1, “Pharmaceutical composition for treatment of drug dependence” (priority 2003, published 2006).

Columns and labels:
IT-tg and IT-wt mice [1] = experiment: Morphine CPP test in cholinergic cell-eliminated (IT-tg) and IT-wt mice with donepezil pretreatment; assay type: in vivo; conditions: donepezil hydrochloride 1 mg/kg i.p. 20 min before morphine 5 mg/kg, 3-day conditioning
Method: (§1) Cholinergic cell-eliminated (IT-tg) mice wherein ACh-expressing cells (cholinergic cells) in the NAc were ablated were prepared and used in the experiment for examining the effects of reduction of ACh level in the NAc on sensitivity to an addictive drug (a drug dependence-producing drug). Selective ablation of cholinergic cells in the NAc was conducted through immunotoxin-mediated cell targeting (IMCT) techniques using transgenic mice and anti-Tac(Fv)-PE38 as the immunotoxin (Kobayashi et al., Proc. Natl Acad. Sci. USA 92, 1132-1136 (1995); Watanabe et al., Cell 95, 17-27 (1998)). […] Anti-Tac(Fv)-PE38 is an immunotoxin that can specifically recognize cells expressing hIL-2Rα and inhibits their protein synthesis, thereby eliminating the cells expressing hIL-2Rα. The present inventors have developed a method for selectively ablating cholinergic cells in the NAc; the method comprising administering anti-Tac(Fv)-PE38 locally to a transgenic mouse whose NAc specifically expressed hIL-2Rα in cholinergic cells. […] Both wild-type and transgenic mice were C57B6/J strain. […] The above-mentioned IT-treated transgenic mouse was used as cholinergic cell-eliminated mouse (IT-tg) in the Experiments and Examples hereinafter described.

wild-type mice [2] = experiment: Cocaine-induced hyperlocomotion on day 6 after establishment of cocaine dependence, wild-type mice; assay type: in vivo; conditions: cocaine 10 mg/kg i.p. daily 5 days, day 6 pretreatment 1 mg/kg 10 min before cocaine, FIG. 5c, P<0.001, P<0.01
Method: Wild-type mice (9-13 weeks) received intraperitoneal injection of cocaine (10 mg/kg) once a day for 5 days. […] On day 6, the mice were pretreated with saline, donepezil (1 mg/kg) or galanthamine (1 mg/kg) 10 min before intraperitoneal injection of cocaine (10 mg/kg), and the cocaine-induced locomotor activity was measured for 10 min (n=5-12 for each group).

IT-wt and IT-tg mice = experiment: Cocaine-induced hyperlocomotion on day 6 in IT-wt and IT-tg mice; assay type: in vivo; conditions: cocaine 10 mg/kg daily 5 days, day 6 donepezil 1 mg/kg 10 min before cocaine
Method: Cholinergic cell-eliminated (IT-tg) mice wherein ACh-expressing cells (cholinergic cells) in the NAc were ablated were prepared and used in the experiment for examining the effects of reduction of ACh level in the NAc on sensitivity to an addictive drug (a drug dependence-producing drug). Selective ablation of cholinergic cells in the NAc was conducted through immunotoxin-mediated cell targeting (IMCT) techniques using transgenic mice and anti-Tac(Fv)-PE38 as the immunotoxin (Kobayashi et al., Proc. Natl Acad. Sci. USA 92, 1132-1136 (1995); Watanabe et al., Cell 95, 17-27 (1998)). Anti-Tac (Fv)-PE38 is a recombinant fusion protein composed of a variable region of a monoclonal antibody against human interleukin 2 receptor α subunit (hIL-2Rα) and Pseudomonas exotoxin, and can be purified from E. coli BL21 as described by Chaudhary et al. (Nature 339, 394-397 (1989)). Anti-Tac(Fv)-PE38 is an immunotoxin that can specifically recognize cells expressing hIL-2Rα and inhibits their protein synthesis, thereby eliminating the cells expressing hIL-2Rα. […]
The present investigation was conducted to examine whether ACh derived from the NAc cholinergic cells is responsible for cocaine-induced hyperlocomotion. […] Their cocaine-induced locomotion was then measured for 10 min (n=7-11 for each group). […]

wild-type mice [3] = experiment: Relapse of cocaine-induced hyperlocomotion after drug deprivation, wild-type mice; assay type: in vivo; conditions: cocaine 10 mg/kg 6 days, withheld days 7-11, day 12 donepezil 1 mg/kg 10 min before cocaine, P<0.001 vs saline, FIG. 5e
Method: Drug-induced sensitization caused by continuous daily cocaine administration persists for a long term even after a prolonged period of abstinence from the drug. This is taken seriously as a mechanism of relapse, whereby a drug dependent individual resumes taking a drug after a long-term interruption. The effects of donepezil in blocking relapse of cocaine dependence were examined as follows: Wild-type mice (9-13 weeks) received intraperitoneal injection of cocaine (10 mg/kg) once a day for 6 days and cocaine dependence was established in mice. For 5 days, from day 7 to day 11, mice were withheld from cocaine and were kept in their home cage. On day 12, the mice were pretreated with saline or donepezil (1 mg/kg) 10 min before intraperitoneal injection with cocaine (10 mg/kg). The locomotor activity was then measured for 10 min (n=6 for each group).

wild-type mice [4] = experiment: Cocaine CPP test in wild-type mice; conditions: donepezil hydrochloride 1 or 3 mg/kg i.p. (both doses) 20 min before drug, cocaine 10 mg/kg daily, 3 days, P<0.01, FIG. 5a
wild-type mice [5] = experiment: Morphine conditioned place preference (CPP) test in wild-type mice; conditions: donepezil hydrochloride 1 or 3 mg/kg i.p. (both doses) 20 min before morphine 5 mg/kg, 3-day conditioning, P<0.01, FIG. 4a
wild-type mice [6] = experiment: Development of cocaine-induced locomotor sensitization in wild-type mice; conditions: donepezil 1 mg/kg 10 min before daily cocaine 10 mg/kg i.p., 10 min measurement, ANOVA P<0.001, FIG. 5b
IT-tg and IT-wt mice [7] = experiment: CPP test of sensitivity to addictive drugs in IT-tg and IT-wt mice
IT-tg and IT-wt mice [8] = experiment: Morphine withdrawal symptom (jumping) induced by naloxone; conditions: naloxone 1 mg/kg 1 hr after morphine 50 mg/kg
IT-tg and IT-wt mice [9] = experiment: Conditioned place aversion (CPA) test, naloxone-precipitated morphine withdrawal; conditions: naloxone 1 mg/kg after morphine 50 mg/kg
IT-tg mice = experiment: Cocaine CPP test in IT-tg mice with ACh receptor agonist pretreatment; assay type: in vivo; conditions: methyl atropine 2 mg/kg pretreatment, pilocarpine 100 mg/kg 20 min before cocaine 5 mg/kg, 3 days, P<0.01 vs saline, FIG. 6
Method: as §1

Compound: COc1cc2c(cc1OC)C(=O)C(CC1CCN(Cc3ccccc3)CC1)C2 (stereo not drawn) [donepezil]
- morphine-induced CPP in IT-tg mice (IT-tg and IT-wt mice [1]; IT-tg mice, FIG. 4b): failed to suppress
- morphine-induced CPP in IT-wt mice (IT-tg and IT-wt mice [1]; IT-wt mice, P<0.01, FIG. 4b): significantly reduced
- cocaine-induced hyperlocomotion on day 6 (wild-type mice [2]): significantly effective in inhibiting
- effects on cocaine-induced locomotion in IT-tg group (IT-wt and IT-tg mice; IT-tg mice, FIG. 5d): not observed
- cocaine-induced abnormal behaviors (locomotor sensitization) in IT-wt group (IT-wt and IT-tg mice; IT-wt mice, P<0.05, FIG. 5d): significantly decreased
- abnormal hyperlocomotion after cocaine re-administration on day 12 (relapse) (wild-type mice [3]): no abnormal hyperlocomotion was observed
- degree of cocaine-induced CPP (wild-type mice [4]): significantly reduced
- development of morphine-induced CPP (wild-type mice [5]): significantly reduced
- increase in locomotor activity by repeated cocaine administration (locomotor sensitization) (wild-type mice [6]): no such increase was observed

Compound: COc1ccc2c3c1O[C@H]1C[C@@H](O)C=C[C@@]31CCN(C)C2 [galanthamine]
- cocaine-induced hyperlocomotion on day 6 (wild-type mice [2]): significantly effective in inhibiting

Compound: CN1CC[C@]23c4c5ccc(O)c4O[C@H]2[C@@H](O)C=C[C@H]3[C@H]1C5 [morphine]
- place preference for morphine-paired chamber, IT-tg mice, 1 mg/kg (IT-tg and IT-wt mice [7]; IT-tg mice, 3-day conditioning with 1 mg/kg morphine i.p., P<0.05, FIG. 2a): significant preference
- place preference for morphine-paired chamber, IT-wt mice, 1 mg/kg (IT-tg and IT-wt mice [7]; IT-wt mice, 3-day conditioning with 1 mg/kg morphine i.p., FIG. 2a): no such preference was observed
- place preference for morphine-paired chamber, 5 mg/kg (IT-tg and IT-wt mice [7]; both IT-tg and IT-wt mice, conditioning with 5 mg/kg morphine): exhibited place preference

Compound: C=CCN1CC[C@]23c4c5ccc(O)c4O[C@H]2C(=O)CC[C@@]3(O)[C@H]1C5 [naloxone]
- jumping (physical morphine withdrawal symptom) (IT-tg and IT-wt mice [8]; IT-tg and IT-wt morphine-dependent mice, counted over 20 min): observed in both
- number of jumps, IT-tg vs IT-wt mice (IT-tg and IT-wt mice [8]; morphine-dependent mice, 20 min, P<0.05, FIG. 3): significantly more number of jumps
- place aversion to naloxone-paired chamber (IT-tg and IT-wt mice [9]; both IT-tg and IT-wt morphine-dependent mice, FIG. 2b): exhibited place aversion
- place aversion to naloxone-paired chamber, IT-tg vs IT-wt mice (IT-tg and IT-wt mice [9]; morphine-dependent mice, P<0.05, FIG. 2b): stronger place aversion

Compound: CC[C@@H]1C(=O)OC[C@@H]1Cc1cncn1C [pilocarpine]
- development of cocaine-induced CPP in IT-tg mice (IT-tg mice): significantly reduced
